Measured values as given in ChEMBL document CHEMBL1201862, “PubChem BioAssay data set” (2004).
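Cultured in 96-well plates, cells were exposed to test compound for 48 hours across five concentrations. The concentration for 50% growth inhibition is given as GI50.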 Active and inactive are the calls of the source. No stated cut-off is given here; in the data, active = GI50 up to about 1.1 µM and inactive = higher.

Assays:
Assay in all cases: growth of human tumour cells (NCI), 48 h
SK-MEL-28 = tested on: SK-MEL-28
MDA-N = tested on: MDA-N
CAKI-1 = tested on: CAKI-1
LOX IMVI = tested on: LOX IMVI
CCRF-CEM = tested on: CCRF-CEM
SR = tested on: SR
U-251 = tested on: U-251
RPMI-8226 = tested on: RPMI-8226
UO-31 = tested on: UO-31
T47D = tested on: T47D
HOP-62 = tested on: HOP-62
SW-620 = tested on: SW-620
HCT-15 = tested on: HCT-15
SF-268 = tested on: SF-268
HL-60 = tested on: HL-60
HT-29 = tested on: HT-29
K562 = tested on: K562
MCF7 = tested on: MCF7
NCI-H522 = tested on: NCI-H522
BT-549 = tested on: BT-549

Row | SMILES | GI50 (SK-MEL-28) | GI50 (MDA-N) | GI50 (CAKI-1) | GI50 (LOX IMVI) | GI50 (CCRF-CEM) | GI50 (SR) | GI50 (U-251) | GI50 (RPMI-8226) | GI50 (UO-31) | GI50 (T47D) | GI50 (HOP-62) | GI50 (SW-620) | GI50 (HCT-15) [µM] | GI50 (SF-268) | GI50 (HL-60) | GI50 (HT-29) | GI50 (K562) | GI50 (MCF7) | GI50 (NCI-H522) | GI50 (BT-549)
1 | O=C1Nc2ccccc2/C1=N/NC(=S)Nc1ccc(Cl)cc1 | > 100 µM (inactive) | 63.7 µM (inactive) | 11.3 µM (inactive) | 27.7 µM (inactive) | 22.8 µM (inactive) | 10.8 µM (inactive) | 23.2 µM (inactive) | 49.7 µM (inactive) | 38.8 µM (inactive) | 83 µM (inactive) | 34.8 µM (inactive) | 29.4 µM (inactive) | 20.2 | 31.6 µM (inactive) | 39 µM (inactive) | 41 µM (inactive) | 29.9 µM (inactive) | 48.6 µM (inactive) | 57 µM (inactive) | 
2 | C/C(=N\NC(=S)N1CCN(C)CC1)c1nc2cccnc2[nH]1 | > 100 µM (inactive) |  | > 100 µM (inactive) | > 100 µM (inactive) | > 100 µM (inactive) |  | > 100 µM (inactive) | > 100 µM (inactive) | 32 µM (inactive) | 52.1 µM (inactive) | > 100 µM (inactive) | > 100 µM (inactive) | > 100 | > 100 µM (inactive) | > 100 µM (inactive) | > 100 µM (inactive) | 92.3 µM (inactive) | 20.4 µM (inactive) | > 100 µM (inactive) | 22.4 µM (inactive)
3 | CN(CCc1ccccn1)C(=S)N/N=C(\c1ccccc1)c1ccccn1 | 0.802 µM (active) | 0.582 µM (active) | < 0.01 µM (active) | < 0.01 µM (active) | < 0.01 µM (active) | 0.0489 µM (active) | 0.0101 µM (active) | < 0.01 µM (active) | 0.0192 µM (active) | < 0.01 µM (active) | < 0.0215 µM (active) | < 0.01 µM (active) | < 0.01 |  | < 0.01 µM (active) | < 0.01 µM (active) | < 0.01 µM (active) | < 0.01 µM (active) | < 0.01 µM (active) | 
4 | COc1cc2c(cc1OS(C)(=O)=O)N=C[C@@H]1CCCN1C2=O | > 100 µM (inactive) |  | > 100 µM (inactive) | > 100 µM (inactive) | 72.3 µM (inactive) | > 100 µM (inactive) | > 100 µM (inactive) | > 100 µM (inactive) | > 100 µM (inactive) | > 100 µM (inactive) |  | > 100 µM (inactive) | > 100 | > 100 µM (inactive) | > 100 µM (inactive) | > 100 µM (inactive) |  | > 100 µM (inactive) | > 100 µM (inactive) | 
5 | Nc1ccc(/C=C/c2ccc3cccnc3c2)cc1 | > 100 µM (inactive) | > 100 µM (inactive) | 90.8 µM (inactive) | > 100 µM (inactive) | > 100 µM (inactive) | > 100 µM (inactive) | > 100 µM (inactive) | 2.26 µM (inactive) | > 100 µM (inactive) | 92.9 µM (inactive) | > 100 µM (inactive) | > 100 µM (inactive) | > 100 | > 100 µM (inactive) | 4.61 µM (inactive) | > 100 µM (inactive) | > 100 µM (inactive) | 5.81 µM (inactive) |  | 
6 | COc1ccc2c(c1)[n+]([O-])c(C(=O)C/C(=N\NC(=O)C[N+](C)(C)C)C(=O)Nc1cc(Cl)ccc1Cl)c(C)[n+]2[O-] | > 100 µM (inactive) |  | > 100 µM (inactive) | > 100 µM (inactive) | > 100 µM (inactive) | 43.3 µM (inactive) | > 100 µM (inactive) | > 100 µM (inactive) | > 100 µM (inactive) |  | > 100 µM (inactive) | > 100 µM (inactive) | > 100 | > 100 µM (inactive) | 88.3 µM (inactive) | > 100 µM (inactive) | > 100 µM (inactive) |  | > 100 µM (inactive) | 
7 | NC(CO)c1ccc(OCc2ccccc2)cc1 (configuration not stated) | > 100 µM (inactive) |  | > 53.7 µM (inactive) | 47.3 µM (inactive) | 40.6 µM (inactive) | 31.2 µM (inactive) | > 100 µM (inactive) | > 100 µM (inactive) | 44.3 µM (inactive) |  | > 100 µM (inactive) | 38.8 µM (inactive) | > 91.8 | > 100 µM (inactive) | 24.4 µM (inactive) | > 100 µM (inactive) | > 100 µM (inactive) |  | 42 µM (inactive) | 
8 | CSc1cc(Cl)c(C)cc1S(=O)(=O)NC(=O)NNc1cnc2ccccc2n1 | > 100 µM (inactive) | > 100 µM (inactive) | > 100 µM (inactive) | > 100 µM (inactive) | > 100 µM (inactive) | > 100 µM (inactive) | > 100 µM (inactive) |  |  | > 100 µM (inactive) | > 100 µM (inactive) | > 100 µM (inactive) | > 100 | > 100 µM (inactive) |  | > 100 µM (inactive) | > 100 µM (inactive) | > 100 µM (inactive) | > 100 µM (inactive) | 
9 | CCOC(=O)c1ccc(NCc2ccc3nc(OC)c(OC)nc3c2)cc1 | > 100 µM (inactive) | > 100 µM (inactive) | > 100 µM (inactive) | > 100 µM (inactive) | > 100 µM (inactive) | > 100 µM (inactive) | > 100 µM (inactive) |  | > 100 µM (inactive) | 57.1 µM (inactive) | > 100 µM (inactive) | > 100 µM (inactive) | > 100 | > 100 µM (inactive) | 47.8 µM (inactive) | > 100 µM (inactive) | > 100 µM (inactive) | > 100 µM (inactive) | > 100 µM (inactive) | 
10 | CC1=CC[C@@]2(C)CC[C@](O)(C(C)C)C2C(OC(=O)c2ccccc2)C1 (some centres not stated) | 24 µM (inactive) |  | 21.1 µM (inactive) | 19.4 µM (inactive) | 23 µM (inactive) | 31.7 µM (inactive) | 27.8 µM (inactive) | 16 µM (inactive) | 17.3 µM (inactive) | 20.1 µM (inactive) | 18 µM (inactive) | 22.3 µM (inactive) | 18.7 | 23.2 µM (inactive) | 28.9 µM (inactive) | 16.7 µM (inactive) | 19.5 µM (inactive) | 17.9 µM (inactive) | 16.5 µM (inactive) | 
11 | COc1ccc(-c2cc(C(=O)Nc3cccc(C(F)(F)F)c3)nc(S)n2)cc1 | > 100 µM (inactive) |  | > 100 µM (inactive) | > 100 µM (inactive) | > 100 µM (inactive) | > 100 µM (inactive) | > 100 µM (inactive) | > 100 µM (inactive) | > 100 µM (inactive) |  | > 100 µM (inactive) | > 100 µM (inactive) | > 100 | > 100 µM (inactive) | > 100 µM (inactive) | > 100 µM (inactive) | > 100 µM (inactive) |  | > 100 µM (inactive) | 
12 | COC(=O)C1(C(=O)OC)C/C(C)=C(/C)SCCCS1 | > 100 µM (inactive) | > 100 µM (inactive) | > 100 µM (inactive) | > 100 µM (inactive) | > 100 µM (inactive) | 81.3 µM (inactive) | > 100 µM (inactive) |  | > 100 µM (inactive) | > 100 µM (inactive) | > 100 µM (inactive) | > 100 µM (inactive) | > 100 | > 100 µM (inactive) |  | > 100 µM (inactive) | 43.1 µM (inactive) | > 100 µM (inactive) | > 100 µM (inactive) | 
13 | N#C/C(=N\c1ccccc1N(C(=O)c1ccccc1)C(=O)c1ccccc1)c1ccccc1 | > 100 µM (inactive) |  | 47.6 µM (inactive) | 27.2 µM (inactive) | 2.25 µM (inactive) | 2.4 µM (inactive) | 10.3 µM (inactive) | 5.97 µM (inactive) | > 55.5 µM (inactive) |  | > 30.7 µM (inactive) | 6.52 µM (inactive) | 5.14 | > 100 µM (inactive) | 0.923 µM (active) | 15.3 µM (inactive) | 3.49 µM (inactive) |  | 4.91 µM (inactive) | 
14 | Cc1cc(Cl)cc2c1NC(=O)C2(O)C(C)C(=O)c1ccc(Cl)cc1 (configuration not stated) | > 62.1 µM (inactive) |  | > 92.5 µM (inactive) | > 100 µM (inactive) | 30.2 µM (inactive) | > 66.2 µM (inactive) | 72.4 µM (inactive) | 31.8 µM (inactive) | > 100 µM (inactive) |  | > 100 µM (inactive) | > 74.8 µM (inactive) | > 89.1 | > 71.9 µM (inactive) | 3.15 µM (inactive) | > 83.2 µM (inactive) | > 58.9 µM (inactive) |  | 39.9 µM (inactive) | 
15 | Cc1ccc(-n2c(N)c(C#N)c3[nH]nc(N)c3c2=O)cc1 | > 100 µM (inactive) |  | > 100 µM (inactive) | > 100 µM (inactive) | > 100 µM (inactive) | > 10 µM (inactive) | > 100 µM (inactive) | > 100 µM (inactive) | > 100 µM (inactive) | > 100 µM (inactive) | > 100 µM (inactive) | > 100 µM (inactive) | > 100 | > 100 µM (inactive) | > 100 µM (inactive) | > 100 µM (inactive) | > 100 µM (inactive) | > 100 µM (inactive) |  | 
16 | CCOC(=O)c1cnc(-n2[nH]c(C)c(CCO)c2=O)[nH]c1=O | > 100 µM (inactive) | > 100 µM (inactive) | > 100 µM (inactive) | > 100 µM (inactive) | > 100 µM (inactive) |  | > 100 µM (inactive) | > 100 µM (inactive) | > 100 µM (inactive) | > 100 µM (inactive) | > 100 µM (inactive) | > 100 µM (inactive) | > 100 | > 100 µM (inactive) | > 100 µM (inactive) | > 100 µM (inactive) | > 100 µM (inactive) | > 100 µM (inactive) |  | 
